According to patent US11220486B2 (La Jolla Institute of Allergy & Immunology, priority 2014, dated 2022):
Read-outs that look alike come from different tables or passages of the source. Blank lines part the entries; values can stand above or below the compound they belong to.

Assays:
[1] = target: LMPTP-A (Low Molecular Weight Protein Tyrosine Phosphatase-A) enzyme (Homo sapiens (Human), UniProt P24666); assay: LMPTP primary screening / LMPTP (OMFP) enzyme inhibition assay, fluorescence intensity; type: biochemical
Sequence of LMPTP-A (Low Molecular Weight Protein Tyrosine Phosphatase-A) enzyme (P24666 whole entry): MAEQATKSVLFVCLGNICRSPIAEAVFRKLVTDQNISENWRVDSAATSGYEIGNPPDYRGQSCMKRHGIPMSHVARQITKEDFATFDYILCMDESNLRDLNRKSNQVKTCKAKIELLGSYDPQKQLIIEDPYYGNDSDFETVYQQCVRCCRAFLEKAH
Experimental: This assay attempts to identify inhibitors of the LMPTP-A (Low Molecular Weight Protein Tyrosine Phosphatase-A) enzyme. It is run in 1536-well format and is measured via fluorescence intensity.
A listing of materials is provided: • Item, source, catalog no. • LMPTP-A Enzyme Stock Solution (4.22 mg/ml or 206.8 μM), SBMRI Protein Facility, • N/A • OMFP, Sigma, M2629-100 MG • Bis-Tris pH 6.0, Fisher Sci, BP301-100 • Triton-X 100, Sigma, T9284 • DTT, Sigma, D9779 • Mol. Grade Water, Mediatech, Inc., 46-000-CM • 1536-well black High base opaque bottom plate, Nexus Biosystems, 00019120
Assay Procedure • 1. Prepare Reagents as described in section F. Recipe. • 2. Using LabCyte Echo, transfer 60 nL from 2 mM test compound source plate into assay plate Col. 5-48 (final concentration of test compounds is 20 μM). 60 nL of DMSO should be transferred to col. 1-4 for positive and negative control wells. • 3. Spin plates at 1000 rpm for 1 minute in centrifuge. • 4. […] Using the Bioraptr, add 3 μL/well of enzyme solution to col. 3-48. • 6. Using the Bioraptr, add 3 μL/well of substrate solution to col. 1-48. • 7. Spin plates at 1000 rpm for 1 minute in centrifuge. • 8. Incubate plates in the dark at room temperature for 50 minutes. • 9. Read plates on PerkinElmer Viewlux using a FI protocol.

3T3-L1 pre-adipocytes = assay: Insulin-based 3T3-L1 adipogenesis assay (AdipoRed); type: cell-based, mouse; settings: 10 μM
Experimental: The probe Compound D1 was also profiled in an insulin-based mouse 3T3-L1 adipogenesis assay. In this assay, 3T3-L1 pre-adipocytes are grown to 2-days post-confluence in DMEM with 10% bovine calf serum, and then induced to differentiate to adipocytes following stimulation for 2 days with an induction cocktail containing […] insulin, 1 μM dexamethasone, and 0.5 mM 3-isobutyl-1-methylxanthine in DMEM containing 10% fetal bovine serum (FBS).^44 2 days later, the media is replaced with DMEM with 10% FBS and 1 μg/ml insulin, and after 2 additional days, the media is replaced with DMEM with 10% FBS for 2 additional days, at which point adipogenesis is measured using the AdipoRed Adipogenesis Assay Reagent from Lonza, according to the manufacturer's instructions. In brief, the assay reagent is added to the wells containing cells, where it partitions into the fat droplets of differentiated adipocytes, and emits fluorescence at 572 nm that can be detected with a plate-reader. To test the effect of probe Compound D1, cells were plated into 48-well plates and allowed to grow to confluence. Cells were then treated with 10 μM Compound D1 or 0.025% DMSO, and after 2 days induced to differentiate in the presence of 10 μM Compound D1 or 0.025% DMSO. Fresh compound or DMSO was added during each media replacement.

[2] = Aqueous solubility in buffer pH 5.0-7.4 and PBS; type: physicochemical
[3] = Rodent pharmacokinetics (IV, PO, IP); type: in vivo, Male C57BL/6 Mice; settings: mouse
Experimental: The inventors also examined ML400 (also described herein as MLS-0472870 or Compound D1) for its rodent pharmacokinetics. The probe Compound D1 was profiled in Male C57BL/6 Mice, with n=3 for each group studied (IV, IP and PO arms). The formulation used was 1.00 mg/mL in DMSO:Tween80:Water=5:5:90, which gave a clear solution. […] Enterohepatic circulation was also observed for this compound. This compound has acceptable parameters for future in vivo studies (see Table 4 and FIG. 13).

[4] = tested on: obese mice (glucose tolerance); assay: IPGTT in high-fat-diet obese mice; type: in vivo, Male C57BL/6 mice; settings: 30 mg/kg daily IP, 4 weeks, HFD obese mice, 2 g glucose/kg
Experimental: Male C57BL/6 mice were maintained on HFD containing 60 kcal % fat for 3 months, followed by daily IP administration of 30 mg/kg Compound D1 or vehicle. After 4 weeks, IPGTT were performed using 2 g glucose/kg body weight. Mean±SEM is shown. *, p<0.05, Two-way ANOVA.

[5] = Kidney function: serum creatinine of treated mice; type: in vivo; settings: mice treated 30 mg/kg daily IP
Experimental: Serum creatinine levels from mice treated with Compound D1 (ML400) or vehicle (mice shown in FIG. 9) were assessed using the QuantiChrom Creatinine Assay Kit from BioAssay Systems.

[6] = Liver function: serum alanine transaminase or aspartate transaminase of treated mice; type: in vivo; settings: mice treated 30 mg/kg daily IP
Experimental: Serum alanine transaminase or aspartate transaminase levels from mice treated with Compound D1 (ML400) or vehicle (mice shown in FIG. 10) were assessed using EnzyChrom Assay Kits from BioAssay Systems.

[7] = Hepatic microsomal stability, mouse; type: in vitro ADME
Excerpt: The microsomal stability assay is commonly used to rank compounds according to their metabolic stability. This assay addresses the pharmacologic question of how long the parent compound will remain circulating in plasma within the body.

[8] = tested on: insulin receptor in human HepG2 hepatocytes; settings: HepG2 cells, 10 microM overnight, 1.76 microM insulin 5 min

Structure (SMILES): CSCCCN1CCCCC1 [Entry 64]
- IC50 ([1]; S sample: compound synthesized de novo by SBCCG, read-out: LMPTP (OMFP) (IC50)): 66.9 µM

Structure (SMILES): COc1ccc(-c2cc(NCCCN3CCCCC3)c3ccccc3n2)cc1 [Compound D1, 2-(4-methoxyphenyl)-N-(3-(piperidin-1-yl)propyl)quinolin-4-amine]
- 3T3-L1 adipogenesis (3T3-L1 pre-adipocytes): completely abolished
- solubility in PBS ([2]; PBS, compared with aqueous buffer): comparable
- concentration achieved in aqueous buffer relative to IC50 ([2]; pH range of 5.0-7.4): 18-20 ×IC50
- Enterohepatic circulation [3]: observed
- glucose tolerance (IPGTT) [4]: Improves Glucose Tolerance
- kidney function (serum creatinine) [5]: does not Affect Kidney Function
- liver function (serum alanine transaminase or aspartate transaminase) [6]: does not Affect Liver Function

Structure (SMILES): c1ccc(-c2cc(NCCN3CCCCC3)c3ccccc3n2)cc1 [Entry 41]
- Hepatic Microsome Stability % Remaining @ 1 hr [7]: 0.38%
- phosphorylation of the insulin receptor [8]: increases phosphorylation of the insulin receptor

Structure (SMILES): CN(C)Cc1cccc(Nc2cc(-c3ccc(Cl)cc3F)nc3ccccc23)c1 [Compound I9, [(3-{[2-(4-chloro-2-fluorophenyl)(4-quinolyl)]amino}phenyl)methyl]dimethylamine]
- IC50 ([1]; read-out: IC50): 0.801 to 5 µM

The remaining lines, values ahead:

- IC50 ([1]; read-out: IC50): 0.2 to 0.8 µM
Structure (SMILES): CCN(CC)CCNC(=O)c1ccc(-c2cc(NCCCN3CCCCC3)c3ccccc3n2)cc1 [Compound I254]

- IC50 ([1]; read-out: IC50): 0.801 to 5 µM
Structure (SMILES): CNC(=O)c1ccc(-c2cc(NCCCN3CCCCC3)c3ccccc3n2)cc1F [Compound I228]
